The values that follow are results of earlier work, collected in patent publication US20230172943A1 (Mylan Specialty L.P., priority 2020, published 2023).

For this series the following is noted: orally delivered, humans.

Regarding `Cc1cnc(NC(=O)C2=C(O)c3ccccc3S(=O)(=O)N2C)s1` [meloxicam, 4-hydroxy-2-methyl-N-(5-methyl-2-thiazolyl)-2H-1,2-benzothiazine-3-carboxamide-1,1-dioxide], the “Tmax (time to reach maximum concentration)” value was 4 to 6 h and the “time to reach the therapeutic concentration that enables the onset of action” value was 2 to 3 h.
